Literature values in patent US20210085711A1 (Japan Tobacco Inc., priority 2017, published 2021).

System: patients
Settings: investigation up to the approval; cited from earlier work

## sodium ferrous citrate
  expression rate of nausea and vomiting: about 13%
